Assay results: ChEMBL document CHEMBL5055679, “Discovery of a Novel Androgen Receptor Antagonist Manifesting Evidence to Disrupt the Dimerization of the Ligand-Binding Domain via Attenuating the Hydrogen-Bonding Network Between the Two Monomers” (J Med Chem, 2021)
Calls of active or inactive are those of the source. The rule behind the calls is not given here.

Assays:
[1] = target: T1, Mineralocorticoid receptor (Homo sapiens) (UniProt P08235); assay: Agonist activity at mineralocorticoid receptor in human PC-3 cells by dual-Glo luciferase assay; format: cell-based
T1 sequence (whole entry): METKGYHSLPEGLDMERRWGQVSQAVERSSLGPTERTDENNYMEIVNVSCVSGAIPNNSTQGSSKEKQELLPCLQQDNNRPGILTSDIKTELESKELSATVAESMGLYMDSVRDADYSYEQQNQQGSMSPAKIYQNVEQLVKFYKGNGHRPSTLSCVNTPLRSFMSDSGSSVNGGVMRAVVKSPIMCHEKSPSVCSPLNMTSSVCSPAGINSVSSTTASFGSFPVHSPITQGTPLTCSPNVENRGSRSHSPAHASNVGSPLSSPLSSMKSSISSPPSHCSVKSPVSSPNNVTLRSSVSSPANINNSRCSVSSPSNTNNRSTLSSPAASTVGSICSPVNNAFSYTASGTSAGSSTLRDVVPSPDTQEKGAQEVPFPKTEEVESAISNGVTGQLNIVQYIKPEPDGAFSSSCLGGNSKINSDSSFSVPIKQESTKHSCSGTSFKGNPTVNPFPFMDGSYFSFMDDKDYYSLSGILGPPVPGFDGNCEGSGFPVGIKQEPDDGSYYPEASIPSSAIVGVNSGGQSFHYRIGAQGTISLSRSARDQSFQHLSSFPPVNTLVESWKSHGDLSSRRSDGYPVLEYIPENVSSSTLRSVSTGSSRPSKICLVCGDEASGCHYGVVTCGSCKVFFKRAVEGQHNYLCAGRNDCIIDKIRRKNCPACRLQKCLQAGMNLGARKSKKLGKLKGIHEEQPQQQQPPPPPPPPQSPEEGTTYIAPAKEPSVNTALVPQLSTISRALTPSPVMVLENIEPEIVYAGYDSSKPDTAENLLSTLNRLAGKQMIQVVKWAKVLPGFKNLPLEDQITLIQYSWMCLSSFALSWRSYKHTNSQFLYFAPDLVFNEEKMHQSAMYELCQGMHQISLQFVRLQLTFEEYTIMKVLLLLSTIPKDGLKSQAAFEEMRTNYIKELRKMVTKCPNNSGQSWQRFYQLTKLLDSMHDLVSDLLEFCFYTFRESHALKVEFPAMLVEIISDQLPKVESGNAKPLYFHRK

[2] = target: T2, Androgen receptor (Homo sapiens) (UniProt P10275); assay: Antagonist activity at androgen receptor in human LNCaP cells assessed as reduction in DHT-induced PSA mRNA expression after 48 hrs by SYBR green dye based qPCR analysis; format: cell-based; conditions: filed as antagonist, dose 0.1-10 µM
T2 sequence (whole entry): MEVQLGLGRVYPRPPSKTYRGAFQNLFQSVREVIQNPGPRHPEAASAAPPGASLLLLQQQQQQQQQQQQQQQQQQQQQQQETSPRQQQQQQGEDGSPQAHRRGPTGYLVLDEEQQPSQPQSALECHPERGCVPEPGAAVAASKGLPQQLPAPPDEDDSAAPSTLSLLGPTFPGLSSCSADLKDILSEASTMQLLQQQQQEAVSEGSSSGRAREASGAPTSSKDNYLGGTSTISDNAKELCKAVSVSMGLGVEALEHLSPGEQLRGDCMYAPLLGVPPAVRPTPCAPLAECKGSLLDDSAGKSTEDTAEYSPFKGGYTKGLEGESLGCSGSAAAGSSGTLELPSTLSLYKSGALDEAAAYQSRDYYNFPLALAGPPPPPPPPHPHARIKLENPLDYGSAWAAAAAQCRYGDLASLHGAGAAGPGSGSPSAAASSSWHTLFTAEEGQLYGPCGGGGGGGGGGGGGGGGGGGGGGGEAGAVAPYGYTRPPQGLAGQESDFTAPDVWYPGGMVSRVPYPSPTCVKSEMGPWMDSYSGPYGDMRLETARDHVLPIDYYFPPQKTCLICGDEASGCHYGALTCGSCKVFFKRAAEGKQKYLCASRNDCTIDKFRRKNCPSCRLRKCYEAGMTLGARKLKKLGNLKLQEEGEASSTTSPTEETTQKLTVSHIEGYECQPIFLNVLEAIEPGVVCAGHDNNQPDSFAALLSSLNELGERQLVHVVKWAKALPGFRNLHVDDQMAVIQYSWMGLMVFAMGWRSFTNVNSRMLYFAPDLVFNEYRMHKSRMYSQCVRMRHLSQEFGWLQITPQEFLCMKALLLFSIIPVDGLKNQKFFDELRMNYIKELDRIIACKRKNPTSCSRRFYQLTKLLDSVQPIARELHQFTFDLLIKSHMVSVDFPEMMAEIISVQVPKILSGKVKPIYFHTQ

DU-145 = assay: Cytotoxicity against human DU-145 cells assessed as reduction in cell viability incubated for 72 hrs by MTT assay; format: functional, cell-based
[3] = target: T3, Glucocorticoid receptor (Homo sapiens) (UniProt P04150); assay: Agonist activity at glucocorticoid receptor in human HeLa cells by dual-Glo luciferase assay; format: cell-based
T3 sequence (whole entry): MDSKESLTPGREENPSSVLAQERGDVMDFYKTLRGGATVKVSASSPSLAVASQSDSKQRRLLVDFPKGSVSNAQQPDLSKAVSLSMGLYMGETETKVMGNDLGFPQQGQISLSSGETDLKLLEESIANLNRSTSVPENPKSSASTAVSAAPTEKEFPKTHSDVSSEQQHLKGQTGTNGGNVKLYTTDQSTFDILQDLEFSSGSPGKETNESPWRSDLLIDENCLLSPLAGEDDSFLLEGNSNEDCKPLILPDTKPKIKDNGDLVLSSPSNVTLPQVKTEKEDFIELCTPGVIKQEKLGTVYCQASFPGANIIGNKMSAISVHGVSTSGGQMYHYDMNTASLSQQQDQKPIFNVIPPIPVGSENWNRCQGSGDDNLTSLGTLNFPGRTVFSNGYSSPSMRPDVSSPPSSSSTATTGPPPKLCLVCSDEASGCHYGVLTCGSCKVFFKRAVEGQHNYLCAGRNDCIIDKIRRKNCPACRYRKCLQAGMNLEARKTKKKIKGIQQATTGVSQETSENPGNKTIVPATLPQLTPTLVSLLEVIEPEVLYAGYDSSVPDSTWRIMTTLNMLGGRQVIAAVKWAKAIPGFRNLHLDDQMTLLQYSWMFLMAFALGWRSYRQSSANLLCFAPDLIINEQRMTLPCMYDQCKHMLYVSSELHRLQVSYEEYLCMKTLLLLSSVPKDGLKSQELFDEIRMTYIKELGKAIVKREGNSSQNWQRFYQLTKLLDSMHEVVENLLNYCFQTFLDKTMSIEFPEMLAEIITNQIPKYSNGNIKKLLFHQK

[4] = target: T2, Androgen receptor (Homo sapiens); assay: Antagonist activity at androgen receptor in human LNCaP cells assessed as reduction in DHT-induced TMPRSS2 mRNA expression after 48 hrs by SYBR green dye based qPCR analysis; format: cell-based; conditions: filed as antagonist, dose 0.1-10 µM
HepG2 = assay: Cytotoxicity against human HepG2 cells assessed as reduction in cell viability at low concentration incubated for 72 hrs by MTT assay; format: functional, cell-based
[5] = target: T2, Androgen receptor (Homo sapiens); assay: Antagonist activity at androgen receptor in human LNCaP cells assessed as inhibition of DHT-induced AR nuclear translocation at 10 uM after 12 hrs by immunofluorescence assay; format: cell-based; conditions: filed as antagonist

O=c1cc(C(F)(F)F)c2ccc(OCc3ccc(Br)cc3)cc2o1
Activity [1]: inactive | Activity [2]: Dose-dependent effect | Activity (DU-145): Active | Activity [3]: inactive | Activity [4]: Dose-dependent effect | Activity (HepG2): inactive | Activity [5]: Active
